Test system: healthy volunteers
Assay: Safety and tolerability of ascending multiple oral doses in healthy volunteers
Type: in vivo, human
Procedure: Study Design: This study was a randomized, double-blind, placebo-controlled, ascending-dose trial to evaluate the safety, tolerability and pharmacokinetics (PK) of multiple oral doses of Compound I. Subjects were enrolled into 1 of the 4 cohorts, 10 subjects per cohort (active:placebo=8:2). Subjects received a multiple oral dose of 25, 50, 100, or 200 mg unformulated Compound I in a capsule, or matching placebo, once daily (QD) for 14 days.
Assessments: Safety and tolerability were assessed by adverse event (AE) monitoring, clinical laboratory testing, vital sign measurement, 12-lead ECG measurement, concomitant medication assessment, and physical examination. Blood and urine samples were collected to assess the PK profile of Compound I and the S-cis isomer of Compound I. Blood samples (˜5 mL) for plasma PK analysis were collected in K2-EDTA vacutainer tubes to yield approximately 2 mL of plasma at each of the following time points: (i) Day 1: before dosing, and 0.25, 0.5, 1, 1.5, 2, 2.5, 3, 4, 6, 8, 10, 12, 16, and 24 hours after dosing; (ii) Day 3 to Day 9: before dosing; (iii) Day 10: before dosing, and 0.25, 0.5, 1, 1.5, 2, 2.5, 3, 4, 6, 8, 10, 12, and 16 hours after dosing; (iv) Day 11 to Day 13: before dosing; (v) Day 14: before dosing, and 0.25, 0.5, 1, 1.5, 2, 2.5, 3, 4, 6, 8, 10, 12, 16, 24, 48, 72, 96, 120, 144, and 168 hours after dosing. Urine samples for the PK analysis were collected as a single block at: (i) Day 1: before dosing (spot collection), 0 to 8, 8 to 16, and 16 to 24 hours after dosing; and (ii) Day 14: 0 to 8, 8 to 16, and 16 to 24 hours after dosing. Both plasma and urine concentrations of Compound I and its S-cis isomer were measured using validated liquid chromatography-tandem mass spectrometry (LC/MS/MS).
Data Analysis: Safety data were summarized using descriptive statistics by treatment. PK parameters for Compound I and its S-cis isomer were calculated using non-compartmental analysis using WinNonlin (Version 5.0.1 or greater; Pharsight Corporation, Mountain View, Calif.). Dose proportionality and dose independence were evaluated by visual inspection. Intra-subject variability was assessed using an ANOVA model using data from Days 10 and 14.

Structure (SMILES): O[C@H]1CC[C@H](Nc2ncc3nc(Nc4c(F)cc(F)cc4F)n([C@H]4CCOC4)c3n2)CC1 [Compound I, 4-((9-((3S)-tetrahydro-3-furanyl)-8-((2,4,6-trifluorophenyl)amino)-9H-purin-2-yl)amino)-trans-cyclohexanol]
- Dermatitis contact, number of subjects reporting TEAE (25 mg QD for 14 days (N = 8)): 0 n (%)
- Dizziness, number of subjects reporting TEAE (25 mg QD for 14 days (N = 8)): 0 n (%)
- Flatulence, number of subjects reporting TEAE (25 mg QD for 14 days (N = 8)): 0 n (%)
- Headache, E = number of TEAE (25 mg QD for 14 days (N = 8)): 1
- Headache, number of subjects reporting TEAE (25 mg QD for 14 days (N = 8)): 1 (12.5) n (%)
- Nasal congestion, E = number of TEAE (25 mg QD for 14 days (N = 8)): 1
- Nasal congestion, number of subjects reporting TEAE (25 mg QD for 14 days (N = 8)): 1 (12.5) n (%)
- Nausea, E = number of TEAE (25 mg QD for 14 days (N = 8)): 1
- Nausea, number of subjects reporting TEAE (25 mg QD for 14 days (N = 8)): 1 (12.5) n (%)
- Pharyngolaryngeal pain, number of subjects reporting TEAE (25 mg QD for 14 days (N = 8)): 0 n (%)
- Rhinitis, number of subjects reporting TEAE (25 mg QD for 14 days (N = 8)): 0 n (%)
- Total TEAEs, E = number of TEAE (25 mg QD for 14 days (N = 8)): 6
- Total TEAEs, number of subjects reporting TEAE (25 mg QD for 14 days (N = 8)): 3 (37.5) n (%)
- Dermatitis contact, E = number of TEAE (50 mg QD for 14 days (N = 8)): 1
- Dermatitis contact, number of subjects reporting TEAE (50 mg QD for 14 days (N = 8)): 1 (12.5) n (%)
- Dizziness, number of subjects reporting TEAE (50 mg QD for 14 days (N = 8)): 0 n (%)
- Flatulence, E = number of TEAE (50 mg QD for 14 days (N = 8)): 4
- Flatulence, number of subjects reporting TEAE (50 mg QD for 14 days (N = 8)): 2 (25.0) n (%)
- Headache, E = number of TEAE (50 mg QD for 14 days (N = 8)): 2
- Headache, number of subjects reporting TEAE (50 mg QD for 14 days (N = 8)): 2 (25.0) n (%)
- Nasal congestion, number of subjects reporting TEAE (50 mg QD for 14 days (N = 8)): 0 n (%)
- Nausea, number of subjects reporting TEAE (50 mg QD for 14 days (N = 8)): 0 n (%)
- Pharyngolaryngeal pain, number of subjects reporting TEAE (50 mg QD for 14 days (N = 8)): 0 n (%)
- Rhinitis, E = number of TEAE (50 mg QD for 14 days (N = 8)): 1
- Rhinitis, number of subjects reporting TEAE (50 mg QD for 14 days (N = 8)): 1 (12.5) n (%)
- Total TEAEs, E = number of TEAE (50 mg QD for 14 days (N = 8)): 20
- Total TEAEs, number of subjects reporting TEAE (50 mg QD for 14 days (N = 8)): 6 (75.0) n (%)
- Dermatitis contact, number of subjects reporting TEAE (100 mg QD for 14 days (N = 8)): 0 n (%)
- Dizziness, E = number of TEAE (100 mg QD for 14 days (N = 8)): 2
- Dizziness, number of subjects reporting TEAE (100 mg QD for 14 days (N = 8)): 2 (25.0) n (%)
- Flatulence, number of subjects reporting TEAE (100 mg QD for 14 days (N = 8)): 0 n (%)
- Headache, E = number of TEAE (100 mg QD for 14 days (N = 8)): 3
- Headache, number of subjects reporting TEAE (100 mg QD for 14 days (N = 8)): 3 (37.5) n (%)
- Nasal congestion, number of subjects reporting TEAE (100 mg QD for 14 days (N = 8)): 0 n (%)
- Nausea, number of subjects reporting TEAE (100 mg QD for 14 days (N = 8)): 0 n (%)
- Pharyngolaryngeal pain, E = number of TEAE (100 mg QD for 14 days (N = 8)): 1
- Pharyngolaryngeal pain, number of subjects reporting TEAE (100 mg QD for 14 days (N = 8)): 1 (12.5) n (%)
- Rhinitis, E = number of TEAE (100 mg QD for 14 days (N = 8)): 1
- Rhinitis, number of subjects reporting TEAE (100 mg QD for 14 days (N = 8)): 1 (12.5) n (%)
- Total TEAEs, E = number of TEAE (100 mg QD for 14 days (N = 8)): 10
- Total TEAEs, number of subjects reporting TEAE (100 mg QD for 14 days (N = 8)): 4 (50.0) n (%)
- Dermatitis contact, E = number of TEAE (200 mg QD for 14 days (N = 8)): 1
- Dermatitis contact, number of subjects reporting TEAE (200 mg QD for 14 days (N = 8)): 1 (12.5) n (%)
- Dizziness, E = number of TEAE (200 mg QD for 14 days (N = 8)): 1
- Dizziness, number of subjects reporting TEAE (200 mg QD for 14 days (N = 8)): 1 (12.5) n (%)
- Flatulence, number of subjects reporting TEAE (200 mg QD for 14 days (N = 8)): 0 n (%)
- Headache, number of subjects reporting TEAE (200 mg QD for 14 days (N = 8)): 0 n (%)
- Nasal congestion, E = number of TEAE (200 mg QD for 14 days (N = 8)): 1
- Nasal congestion, number of subjects reporting TEAE (200 mg QD for 14 days (N = 8)): 1 (12.5) n (%)
- Nausea, E = number of TEAE (200 mg QD for 14 days (N = 8)): 3
- Nausea, number of subjects reporting TEAE (200 mg QD for 14 days (N = 8)): 1 (12.5) n (%)
- Pharyngolaryngeal pain, E = number of TEAE (200 mg QD for 14 days (N = 8)): 1
- Pharyngolaryngeal pain, number of subjects reporting TEAE (200 mg QD for 14 days (N = 8)): 1 (12.5) n (%)
- Rhinitis, number of subjects reporting TEAE (200 mg QD for 14 days (N = 8)): 0 n (%)
- Total TEAEs, E = number of TEAE (200 mg QD for 14 days (N = 8)): 15
- Total TEAEs, number of subjects reporting TEAE (200 mg QD for 14 days (N = 8)): 3 (37.5) n (%)
- serious or severe TEAE (25-200 mg QD for 14 days): no serious or severe TEAE was reported
- subjects reporting treatment-emergent adverse events (active, 25-200 mg QD for 14 days): 16/32
- tolerability (doses up to 200 mg QD for 14 days): well tolerated

Source: US8603527B2, “Pharmaceutical formulations of a substituted diaminopurine” (Signal Pharmaceuticals, LLC, priority 2010, dated 2013)
